Assay results as given in ChEMBL document CHEMBL1143272, “(S)-N-(5-Chlorothiophene-2-sulfonyl)-beta,beta-diethylalaninol a Notch-1-sparing gamma-secretase inhibitor” (Bioorg Med Chem Lett, 2009).
In brackets after ≈: the same amount, converted by molar mass.

Legend:
[1] = Inhibition of gamma-secretase-mediated amyloid beta 40/42 accumulation assessed as beta-CTF cleavage by cell-based sandwich ELISA
[2] = target: Cytochrome P450 2C9 (Homo sapiens, UniProt P11712); test: Inhibition of CYP2C9 at 50 uM; format: ADME
Chain of Cytochrome P450 2C9 (P11712 whole entry): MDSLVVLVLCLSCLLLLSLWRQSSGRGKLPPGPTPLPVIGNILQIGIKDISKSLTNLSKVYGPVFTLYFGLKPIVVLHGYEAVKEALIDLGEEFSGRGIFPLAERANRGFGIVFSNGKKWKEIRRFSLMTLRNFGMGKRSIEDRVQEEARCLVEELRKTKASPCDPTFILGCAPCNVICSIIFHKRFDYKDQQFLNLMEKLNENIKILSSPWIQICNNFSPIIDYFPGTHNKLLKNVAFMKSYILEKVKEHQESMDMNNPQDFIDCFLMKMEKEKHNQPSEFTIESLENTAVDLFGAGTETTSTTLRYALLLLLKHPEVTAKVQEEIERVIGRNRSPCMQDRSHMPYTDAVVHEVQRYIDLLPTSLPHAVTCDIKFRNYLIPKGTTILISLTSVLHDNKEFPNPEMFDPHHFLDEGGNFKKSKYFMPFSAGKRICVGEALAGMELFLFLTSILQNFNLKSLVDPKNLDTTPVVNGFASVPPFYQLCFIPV

[3] = target: Cytochrome P450 2D6 (Homo sapiens, UniProt P10635); test: Inhibition of CYP2D6 at 50 uM; format: ADME
Chain of Cytochrome P450 2D6 (P10635 whole entry): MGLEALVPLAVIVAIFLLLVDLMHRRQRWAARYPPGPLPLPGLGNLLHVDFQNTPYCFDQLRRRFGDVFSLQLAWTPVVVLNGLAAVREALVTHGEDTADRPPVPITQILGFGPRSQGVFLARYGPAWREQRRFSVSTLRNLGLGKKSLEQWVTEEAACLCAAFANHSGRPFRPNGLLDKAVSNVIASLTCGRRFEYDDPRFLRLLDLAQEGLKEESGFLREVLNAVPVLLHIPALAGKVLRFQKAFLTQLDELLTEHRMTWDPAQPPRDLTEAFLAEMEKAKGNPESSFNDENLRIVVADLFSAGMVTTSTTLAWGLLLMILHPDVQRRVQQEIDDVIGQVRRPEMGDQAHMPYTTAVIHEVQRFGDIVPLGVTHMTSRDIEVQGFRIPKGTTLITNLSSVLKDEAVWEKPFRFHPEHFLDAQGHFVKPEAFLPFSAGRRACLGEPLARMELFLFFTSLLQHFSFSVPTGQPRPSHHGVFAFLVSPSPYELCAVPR

[4] = test system: Mus musculus; test: Reduction in amyloid beta 40 level in Tg2576 mouse brain at 1 mg/kg, sc administered subchronically for 5 days; format: functional; set-up: scale not given: the % may be the effect or the level left; details: route subcutaneous
[5] = Selectivity ratio of EC50 for gamma-secretase assessed as Notch-1 cleavage to EC50 for gamma-secretase assessed as beta-CTF cleavage
[6] = Solubility of compound at pH 7.4; format: physicochemical; details: buffer
[7] = Inhibition of gamma-secretase by Notch-1 cleavage assay
[8] = test system: Mus musculus; test: Reduction in amyloid beta 42 level in Tg2576 mouse brain at 1 mg/kg, sc administered subchronically for 5 days; format: functional; set-up: scale not given: the % may be the effect or the level left; details: route subcutaneous
[9] = test system: Mus musculus; test: Reduction in amyloid beta 40 level in Tg2576 mouse brain at 20 mg/kg, sc; format: functional; set-up: scale not given: the % may be the effect or the level left; details: route subcutaneous
[10] = target: Cytochrome P450 3A4 (Homo sapiens, UniProt P08684); test: Inhibition of CYP3A4 at 50 uM; format: ADME
Chain of Cytochrome P450 3A4 (P08684 whole entry): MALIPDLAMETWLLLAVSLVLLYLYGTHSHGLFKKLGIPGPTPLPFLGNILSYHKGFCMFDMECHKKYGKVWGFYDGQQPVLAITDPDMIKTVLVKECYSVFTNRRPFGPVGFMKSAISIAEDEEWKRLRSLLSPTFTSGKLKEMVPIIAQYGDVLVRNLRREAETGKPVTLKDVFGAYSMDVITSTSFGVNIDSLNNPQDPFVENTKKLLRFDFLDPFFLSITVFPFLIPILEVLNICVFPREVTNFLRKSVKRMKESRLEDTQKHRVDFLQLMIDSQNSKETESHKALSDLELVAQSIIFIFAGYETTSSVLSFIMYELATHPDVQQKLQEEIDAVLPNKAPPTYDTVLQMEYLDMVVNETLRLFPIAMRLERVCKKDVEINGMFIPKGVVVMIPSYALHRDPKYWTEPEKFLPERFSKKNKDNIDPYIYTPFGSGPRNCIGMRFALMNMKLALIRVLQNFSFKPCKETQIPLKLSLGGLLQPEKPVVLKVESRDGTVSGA

SMILES | EC50 [1] | other results
CC[C@H](C)[C@@H](CO)NS(=O)(=O)c1ccc(F)s1 | 460 nM | –
CC[C@H](C)[C@@H](CO)NS(=O)(=O)c1ccc(Cl)cc1 | 5500 nM | –
O=S(=O)(N[C@H](CO)C1CCCCC1)c1ccc(Cl)s1 | 820 nM | –
O=S(=O)(N[C@H](CO)C1CCCC1)c1ccc(Cl)s1 | 580 nM | –
CC[C@H](C)[C@@H](CO)NS(=O)(=O)c1ccc(Cl)o1 | > 30000 nM | –
CCCCCC[C@H](CC)[C@@H](CO)NS(=O)(=O)c1ccc(Cl)s1 | 429 nM | –
CC(C)C[C@@H](C)[C@@H](CO)NS(=O)(=O)c1ccc(Cl)s1 | 115 nM | –
CCCCCC[C@@H](CCC)[C@@H](CO)NS(=O)(=O)c1ccc(Cl)s1 | 826 nM | –
CCCCC[C@H](CC)[C@@H](CO)NS(=O)(=O)c1ccc(Cl)s1 | 72 nM | –
CCC[C@H](CC(C)C)[C@@H](CO)NS(=O)(=O)c1ccc(Cl)s1 | 253 nM | –
CCCCC[C@H](c1ccccc1)[C@@H](CO)NS(=O)(=O)c1ccc(Cl)s1 | > 30000 nM | –
CCC[C@H](CC)[C@@H](CO)NS(=O)(=O)c1ccc(Cl)s1 | 29 nM | –
CC(C)[C@@H](CO)NS(=O)(=O)c1ccc(Cl)s1 | 820 nM | –
O=S(=O)(N[C@H](CO)C(c1ccccc1)c1ccccc1)c1ccc(Cl)s1 | > 30000 nM | –
CCCCCC[C@@H](C)[C@@H](CO)NS(=O)(=O)c1ccc(Cl)s1 | 212 nM | –
C[C@@H](c1ccccc1)[C@@H](CO)NS(=O)(=O)c1ccc(Cl)s1 | 3910 nM | –
CC(C)C[C@@H](CO)NS(=O)(=O)c1ccc(Cl)s1 | > 30000 nM | –
CC[C@H](C)[C@@H](CO)NS(=O)(=O)c1ccc(Br)cc1 | 2200 nM | –
CC[C@H](C)[C@@H](CO)NS(=O)(=O)c1ccc(Br)s1 | 160 nM | –
CCCCCC[C@@H](CC)[C@@H](CO)NS(=O)(=O)c1ccc(Cl)s1 | 43 nM | –

The next lines start with results.

EC50 [1] | SMILES | other results
264 nM | CCCCC[C@H](C)[C@@H](CO)NS(=O)(=O)c1ccc(Cl)s1 | –
7600 nM | CC[C@@H](C)[C@H](CO)NS(=O)(=O)c1ccc(Cl)s1 | –
28 nM | CC[C@H](CC(C)C)[C@@H](CO)NS(=O)(=O)c1ccc(Cl)s1 | –
7500 nM | CC(C)(C)[C@@H](CO)NS(=O)(=O)c1ccc(Cl)s1 | –
103 nM | CCC[C@H](C)[C@@H](CO)NS(=O)(=O)c1ccc(Cl)s1 | –
170 nM | CC[C@H](C)[C@@H](CO)NS(=O)(=O)c1ccc(Cl)s1 | –
4180 nM | CCCCC(CCCC)[C@@H](CO)NS(=O)(=O)c1ccc(Cl)s1 | –
4700 nM | CC[C@H](C)[C@@H](CO)NS(=O)(=O)c1ccccc1 | –
> 30000 nM | CCCCCC[C@@H](CCCCC)[C@@H](CO)NS(=O)(=O)c1ccc(Cl)s1 | –
111 nM | CCCC(CCC)[C@@H](CO)NS(=O)(=O)c1ccc(Cl)s1 | –
> 30000 nM | O=S(=O)(N[C@H](CO)C1CCNCC1)c1ccc(Cl)s1 | –
20700 nM | CCCCC[C@H](CC(C)C)[C@@H](CO)NS(=O)(=O)c1ccc(Cl)s1 | –
7000 nM | CC[C@H](C)[C@@H](CO)NS(=O)(=O)c1cccs1 | –
71 nM | CCCCCC[C@@H](C(C)C)[C@@H](CO)NS(=O)(=O)c1ccc(Cl)s1 | –
140 nM | CC[C@@H](C)[C@@H](CO)NS(=O)(=O)c1ccc(Cl)s1 | –
1050 nM | CC[C@H](C)[C@@H](CO)NS(=O)(=O)c1cc(Cl)c(Cl)s1 | –
28 nM | CCC(CC)[C@@H](CO)NS(=O)(=O)c1ccc(Cl)s1 [GSI-136] | Activity [2]: Not Active; Activity [3]: Not Active; Activity [4]: 25%; Activity [5]: 9.5; solubility [6]: 0.037 µg/mL (≈ 0.119 µM); EC50 [7]: 266 nM; Activity [8]: 15%; Activity [9]: 55%; Activity [10]: Not Active
4060 nM | CCC[C@H](c1ccccc1)[C@@H](CO)NS(=O)(=O)c1ccc(Cl)s1 | –
> 30000 nM | CC[C@H](C)[C@@H](CO)NS(=O)(=O)c1sc(Cl)cc1Br | –
490 nM | CC(C)[C@@](C)(CO)NS(=O)(=O)c1ccc(Cl)s1 | –
